One assay deals with T1, truncated human CYP17A1 (Homo sapiens, UniProt P05093, C22K/P23T/R20A/R21K).
T1 sequence (P05093 with tags, fused parts or gaps limits assumed): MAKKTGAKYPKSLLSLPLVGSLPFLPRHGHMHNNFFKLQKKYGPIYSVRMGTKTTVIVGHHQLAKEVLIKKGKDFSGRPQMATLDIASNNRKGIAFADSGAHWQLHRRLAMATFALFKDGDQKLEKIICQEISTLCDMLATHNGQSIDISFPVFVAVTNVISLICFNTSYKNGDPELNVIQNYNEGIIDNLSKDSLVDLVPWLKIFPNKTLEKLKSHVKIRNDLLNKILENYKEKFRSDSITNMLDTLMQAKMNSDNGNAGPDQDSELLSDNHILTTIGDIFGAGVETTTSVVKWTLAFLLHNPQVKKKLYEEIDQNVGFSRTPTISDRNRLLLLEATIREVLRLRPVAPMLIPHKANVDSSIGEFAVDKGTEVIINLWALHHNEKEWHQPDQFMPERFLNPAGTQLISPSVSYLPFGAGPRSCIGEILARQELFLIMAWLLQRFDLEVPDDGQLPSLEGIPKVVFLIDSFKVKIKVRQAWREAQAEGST
Description: Progesterone 17α-hydroxylation, HPLC separation with UV detection. The format is biochemical.

Assay [1] deals with T2, truncated, His-tagged human CYP17A1 (Homo sapiens, UniProt P05093, C22K/P23T/R20A/R21K).
T2 sequence (P05093 with tags, fused parts or gaps limits assumed): T1 sequence (P05093 with tags, fused parts or gaps limits assumed)
The experiment in a line: UV/vis spectral shift ligand binding assay.

In general, IC50 refers to the concentration that inhibits the measured activity by half. A high value points to a need for much substance. As a reminder, the Kd is the constant that tells how readily two partners part at equilibrium. Take `C[C@]12CC[C@H](O)CC1=CC[C@@H]1[C@@H]2CC[C@]2(C)C(n3cnc4ccccc43)=CC[C@@H]12` [TOK-001, 3β-hydroxy-17-(1H-benzimidazole-1-yl)androsta-5,16-diene]: the half-maximal inhibitory concentration (IC50) on truncated human CYP17A1 amounted to 0.503 ± 0.001 µM. Also, in assay [1], the equilibrium dissociation constant (Kd) is less than 0.1 µM.
For `C[C@]12CC[C@H](O)CC1=CC[C@@H]1[C@@H]2CC[C@]2(C)C(c3cccnc3)=CC[C@@H]12` [abiraterone, 17-(3-pyridyl)androsta-5,16-dien-3β-ol], in that order: 0.201 ± 0.001 µM and less than 0.1 µM.
Take `CC(=O)[C@H]1CC[C@H]2[C@@H]3CCC4=CC(=O)CC[C@]4(C)[C@H]3CC[C@]12C` [progesterone]: the Kd in assay [1] stood at 0.229 ± 0.014 µM.

The record behind these values is article PMC3271139 (Nature, 2012).
